Assay results from patent US20060241108A1, “Substituted phenoxazines and acridones as inhibitors of AKT” (St. Jude Children's Research Hospital, priority 2005, published 2006).

How the values were obtained:
Rh18 cells = assay: Cell growth inhibition, Rh18 cells; format: cell-based, human; conditions: complete medium, six days, nuclei counted
Experimental: Cell lines and growth conditions. The human cell lines Rh1, Rh18, and Rh30 (ATCC Deposit # CRL 2061) have been described, e.g., by Hazelton et al. Cancer Res 1987;47:4501-4507 and Hosoi et al. Cancer Res. 1999;59:886-894. Rh1, Rh18 and Rh30 cells can each be grown in antibiotic free RPMI-1640 medium (available from BioWhittaker, Walkersville, Md.), supplemented with 10% fetal bovine serum (available from HyClone Laboratories, Logan, Utah) and 2 mM L-glutamine (available from BioWhittaker, Walkersville, Md.) at 37° C. in an atmosphere of 5% CO2. For serum free experiments, cells can be cultured in modified N2E (MN2E) medium (DMEM/F-12, 1:1 mixture) (Sigma, St. Louis, Mo.) supplemented with 1 μg/ml human holo transferrin, 30 nM sodium selenite, 20 nM progesterone, 100 μM putrescine, 30 nM vitamin E phosphate, and 50 μM ethanolamine. […]
Cell growth inhibition. […] Growth can be assessed after lysing cells, and counting nuclei. […]
The effect(s) of compounds, including phenoxazine compounds such as those listed in Table I, above, on cell growth can be evaluated in cell-based assays such as the exemplary assays described here. Rh1, Rh18 and/or Rh30 cells grown in complete medium can be exposed to graded concentrations of test compound (e.g., from 0.1 to 25 μM) for six days, at which time the cells can be lysed and their growth assessed by counting nuclei. […]

AKT1ΔPH = molecular target: T1, AKT1ΔPH (Homo sapiens, UniProt P31749); assay: In vitro kinase assay with recombinant AKT lacking the pleckstrin homology domain; format: biochemical; conditions: AKTΔPH versus full-length AKT
T1 construct: purchased Upstate Biotechnology
Experimental: In vitro inhibition of recombinant AKT. In vitro kinase assays can be performed using an active, recombinant, full length AKT1/PKBα protein (available from Upstate Biotechnology, Lake Placid, N.Y.) or with an active, recombinant AKT1/PKBα protein, referred to herein as AKT1ΔPH, that lacks the pleckstrin homology domain (also available from Upstate Biotechnology). 10 ng of the recombinant enzyme in 25 μl 1× kinase buffer (25 mM Tris, pH 7.5; 5 mM β-glycerol phosphate; 2 mM dithiothreitol; 0.1 mM Na3VO4; and 10 mM MgCl2) is mixed with 2.5 μl of DMSO and a test compound (5 μM). Samples are incubated on ice for 1 hour, at which time 1 μg of GSK-3 fusion protein (Cell Signaling Technology, Beverly, Mass., catalog #9278) is added followed by ATP (200 μM) to each reaction mixture. After incubating the suspensions at 30° C. for 30 minutes, the reaction can be terminated by the addition of 3×SDS sample buffer (187.5 mM Tris-HCl, pH 6.8; 6% SDS; 30% glycerol; 150 mM dithiothreitol; and 0.03% bromophenol blue). The samples are then boiled for five minutes. The proteins can be separated on a 12% SDS polyacrylamide gel, and subsequently transferred to a nitrocellulose membrane. The membranes are preferably incubated with rabbit polyclonal anti-phospho-GSK-3α/β (Ser21/9) antibody (available from Cell Signaling Technology, Beverly, Mass., catalog # 9331). […]

T1 sequence (P31749 118-480 limits assumed, stated change not applied): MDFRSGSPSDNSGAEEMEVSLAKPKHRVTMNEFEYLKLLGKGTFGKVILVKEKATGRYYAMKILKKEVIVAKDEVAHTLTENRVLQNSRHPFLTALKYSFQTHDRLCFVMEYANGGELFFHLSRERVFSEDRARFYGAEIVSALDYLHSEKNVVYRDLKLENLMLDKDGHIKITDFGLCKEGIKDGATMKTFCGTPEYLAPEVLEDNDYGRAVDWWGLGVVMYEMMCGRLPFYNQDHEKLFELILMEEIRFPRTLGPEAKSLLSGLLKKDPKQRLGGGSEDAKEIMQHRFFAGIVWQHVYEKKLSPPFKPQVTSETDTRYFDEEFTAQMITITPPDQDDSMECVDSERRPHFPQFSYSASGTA

Compound | IC50 (Rh18 cells) [µM] | ability to inhibit AKT kinase activity after deletion of the PH domain (AKT1ΔPH)
10-[4′-[(β-hydroxyethyl)piperazino]butyl]-2-chlorophenoxazine [Compound 15B] | 5 | unaffected by deletion of the PH domain
CCN(CC)CCCCN1c2ccccc2Oc2ccc(Cl)cc21 [Compound 10B, 10-[4′-(N-diethylamino)butyl]-2-chlorophenoxazine] | 5 | unaffected by deletion of the PH domain
